Values of other authors as cited in patent US20130101569A1, “HAIR GROWTH STIMULANT” (priority 2011, published 2013).

What was measured:
[1] = test system: healthy, older adults with mild memory complaints; conditions: taken for six months; 485 subjects aged 55 and older
[2] = not carbohydrates

Row | Compound | heart rate [1] | memory and learning [1] | cravings for fat [2]
1 | CC/C=C\C/C=C\C/C=C\C/C=C\C/C=C\C/C=C\CCC(=O)O [algal DHA, 4Z,7Z,10Z,13Z,16Z,19Z)-docosa-4,7,10,13,16,19-hexaenoic acid] | decreased heart rate | improved memory and learning | 
2 | Chromium(III) picolinate [chromium picolinate] |  |  | reduce cravings for fat
